test system: Bacillus cereus; assay: Initial velocity (v) of the hydrolysis catalyzed by Bacillus cereus sphingomyelinase was measured; assay type: functional

SMILES	Velocity [µM/min/mg]
CCCCCCC[C@@H](O)[C@H](COP(=O)([O-])OCC[N+](C)(C)C)NC(=O)CCCCC	109.15
CCCCC/C=C/[C@H](O)[C@H](COP(=O)([O-])OCC[N+](C)(C)C)NC(=O)CCCCC	11.17
CCCCCCC[C@H](O)[C@H](COP(=O)([O-])OCC[N+](C)(C)C)NC(=O)CCCCC	5.08
CCCCC/C=C/[C@@H](O)[C@H](COP(=O)([O-])OCC[N+](C)(C)C)NC(=O)CCCCC	136.31

From ChEMBL document CHEMBL1151078, “An efficient synthesis of short-chain sphingomyelin analogs and their susceptibility to hydrolysis catalyzed by sphingomyelinase” (1997)
